Data on two compounds can be found in PMC8634903, “Effects of Dicyclohexyl Phthalate Exposure on PXR Activation and Lipid Homeostasis in Mice” (Environmental Health Perspectives, 2021).

The structures appear in SMILES notation.

Data set [1] deals with T1, pregnane X receptor (hPXR) (Homo sapiens, UniProt O75469).
T1 construct: gene NR1I2
T1 sequence (O75469 130-434 limits assumed): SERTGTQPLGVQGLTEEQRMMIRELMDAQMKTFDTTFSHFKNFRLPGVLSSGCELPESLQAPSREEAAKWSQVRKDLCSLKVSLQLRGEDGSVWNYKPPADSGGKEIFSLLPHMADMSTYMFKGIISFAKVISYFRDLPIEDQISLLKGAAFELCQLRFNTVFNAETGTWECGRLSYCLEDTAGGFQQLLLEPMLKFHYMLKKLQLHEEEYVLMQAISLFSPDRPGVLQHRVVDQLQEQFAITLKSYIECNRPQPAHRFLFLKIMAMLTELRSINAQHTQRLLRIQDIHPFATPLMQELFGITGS
The experiment in a line: LanthaScreen TR-FRET competitive binding assay with recombinant GST-hPXR LBD (positive control); also cell reporter assay.

The target of data set [2] is T2, rat pregnane X receptor (rPXR) (Rattus norvegicus, UniProt Q9R1A7).
T2 construct: gene Nr1i2
T2 sequence (Q9R1A7 143-431 limits assumed): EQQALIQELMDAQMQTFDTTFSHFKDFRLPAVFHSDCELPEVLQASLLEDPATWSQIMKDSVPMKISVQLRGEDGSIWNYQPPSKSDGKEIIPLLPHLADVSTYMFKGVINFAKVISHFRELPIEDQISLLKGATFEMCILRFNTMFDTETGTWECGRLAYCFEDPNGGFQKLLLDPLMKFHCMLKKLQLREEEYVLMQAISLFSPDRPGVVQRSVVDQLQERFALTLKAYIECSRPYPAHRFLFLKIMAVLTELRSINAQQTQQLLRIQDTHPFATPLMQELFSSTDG
The experiment in a line: GAL4-LBD luciferase reporter assay in LS180 cells at […] DCHP. Format: cell-based. (In a reporter assay the amount or activity of a reporter protein is the signal.)

Data set [3] concerns the target T1, pregnane X receptor (hPXR). The data set can be described thus: LanthaScreen TR-FRET competitive binding assay with recombinant GST-hPXR LBD; also cell reporter assay (EC50 […]).

Turning to `CCCCC(CC)COC(=O)c1ccccc1C(=O)OCC(CC)CCCC` (stereo not drawn) [DEHP, di(2-ethylhexyl) phthalate], the “LanthaScreen TR-FRET competitive binding assay with recombinant GST-hPXR LBD (po)” value in data set [1] is “inhibition of FRET between fluorescein-labeled PXR ligand and recombinant GST-PXR LBD by DCHP and DEHP”.

One may read the IC50 as the midpoint of a concentration-inhibition curve. As for `O=C(OC1CCCCC1)c1ccccc1C(=O)OC1CCCCC1` [DCHP, dicyclohexyl phthalate], the “GAL4-LBD luciferase reporter assay in LS180 cells at 10 μM DCHP” value in data set [2] is “DCHP activated three forms of PXR including hPXR, mPXR, and rat PXR (rPXR)”. In addition, the concentration for half-maximal inhibition (IC50) in data set [3] was 7.3 µM.
